Measured values: patent US6852698B2, “Free radical scavengers or promoters thereof as therapeutic adjuvants in preterm parturition” (priority 2000, dated 2005)

Assays:
[1] = test system: extracellular O2−; experiment: Placental extracellular superoxide production (SOD-inhibitable NBT reduction); format: in vivo, mice
Procedure: Placental extracellular superoxide production: Placental extracellular superoxide production was determined by the SOD-inhibitable reduction of nitroblue tetrazolium. Briefly, after sacrifice duplicate placentas where incubated each in 1 ml 1 mg/ml nitroblue tetrazolium (NBT) diluted in PBS, for 1 h. in a CO2 incubator with humidified chamber at 37° C. The soluble yellow form of NBT is reduced by O2.^− generated within the tissue to form an insoluble precipitate of blue-purple formazan that discolorates the tissue. Extracellular O2.^− produces a discoloration of the incubation medium. The incubation was performed in the presence and absence of SOD. The difference in absorbance at 655 nm normalized by the dry weight of placenta between the average of the duplicates in the presence and absence of SOD represents the SOD-inhibitable O2.^− production and was expressed in normalized arbitrary units.

[2] = test system: C57B16 inbred mice; experiment: Fetal outcome (viability) in LPS-injected pregnant mice; format: in vivo; details: for Fetuses dead in utero: 16 h after LPS
Procedure: (§1) Animals and treatments: C57B16 inbred mice were housed together with CD57/BL6 males under regular light and dark cycles, with stable ambient temperature conditions. The next morning the females were examined for the presence of a vaginal plug. The day of detection of the vaginal plug was designated as day 0. On day 16 of pregnancy the pregnant mice were injected i.p. with either 10 μg lipopolysaccharide (LPS: from E Coli 0111.:B4 from Calbiochem) or saline (controls). N-Acetylcysteine 1 g/kg (NAC: which is a membrane permeable GSH precursor, Sigma, St. Louis Mo. and direct antioxidant) was given p.o. by gavage 30 min before and 2 h after the LPS injection. NAC was diluted in phosphate buffered saline (PBS). After 12 hours the animals were inspected hourly for signs of parturition (posture, bleeding). The time between LPS injection and delivery of the first pup was defined as latency. Fetal viability at birth was recorded after tactile stimulation of the pup. To separate between the effect of prematurity on the fetus and the in utero consequence of endotoxin administration on the fetus, animals were sacrificed at 3, 6 and 16 hours after endotoxin injection in a separate set of experiments.

[3] = test system: MMP-9; experiment: Gelatin zymography of medium from incubated human term amniochorionic membranes, MMP-9; format: cell-based; details: for Effect on the increase in MMP-9 induced by X/XO: X 2 mM + XO 20 mU/ml, SOD 500 U/ml
Text: (§2) Tissues: Full thickness amniochorionic membranes were collected from seven patients without complications of pregnancy undergoing elective C-section at term. The fragment collected was selected from a region at least 10 cm away from the placenta. Immediately after collection, membranes were placed in minimum essential medium (MEM) (Gibco, Grand Island, N.Y.) on ice. Tissue samples were then cut under sterile conditions with a scalpel blade into smaller pieces of similar size. Over the next 30 min., the pieces of membranes were rinsed thoroughly with several changes of MEM and then sterile phosphate buffered saline (PBS) pH=7.8. Preweighed amounts of tissue (approximately 500 mg) consisting of several pieces selected at random were placed in a CO2 incubator with a humidified chamber at 37° C. for 24 hours. Incubations were carried out in a total volume of 2 ml buffer. Both wet weight and dry weight of tissue pieces were determined after incubation and after drying overnight at 60° C., respectively. After incubation the culture-conditioned medium was collected, briefly spun at 1000 g to remove cellular debris and loaded directly on gelatin gels. The concentration of protein in the aliquots of medium was measured with a BCA kit (Pierce, Rockford, Ill.).
Drugs and incubations: Incubations were performed in the presence of xanthine (X: 2 mM), xanthine oxidase (XO: 20 mU/ml), the combination xanthine+xanthine oxidase (X/XO), superoxide dismutase (SOD: 500 U/ml), X/XO/SOD, nitro-L-arginine (a nonspecific nitric oxide synthase inhibitor, LNA: 1 mM), X/XO/LNA, S-nitroso-N-acetyl penicillamine (a nitric oxide donor, SNAP 10 mM), X/XO/SNAP, N-acetyl cysteine (NAC: 0.1, 1, 10 mM), lipopolysaccharide (LPS 100 ng/ml). All chemicals were purchased from Sigma (St. Louis, Mo.) unless otherwise specified.
SDS-Substrate gel electrophoresis (zymography): For detection of MMPs, equal volumes (15 μl) of conditioned medium (containing the activated MMPs) were mixed in a 1:3 ratio with substrate gel buffer (10% SDS, 4% sucrose, 0.25 M Tris-HCl, pH=6.8 and 0.1% bromphenol blue) and loaded directly onto gels without boiling (Raj agopalan et al., 1996 with modifications). Briefly, type I gelatin was added to a standard Laemmli 10% acrylamide polymerization mixture at a final concentration of 1 mg/ml. Following electrophoresis, the proteins in the gel were renatured by exchanging SDS with Triton X-100 and the gels were incubated overnight at 37° C. in 50 mM TRIS-HCl, pH=7.4 containing 10 mM CaCl2 and 0.05% Brij 35. At the end of the incubation, the gels were stained with 0.5% Coomassie Blue R-250 (Bio-Rad, Hercules, Calif.) in 40% methanol/10% acetic acid, then destained in 40% methanol/10% acetic acid for 1 h. Proteins having gelatinolytic activity appeared as discrete translucent areas of lytic activity on an otherwise blue gel. When the gels are incubated in parallel with 0.01 M EDTA, disappearance of lytic bands confirms the metal dependence of MMP activity. Migration of proteins was compared with that of prestained broad molecular weight markers (Bio-Rad). Further, 10 ng/lane of zymography standards (recombinant MMP-2/MMP-9, Calbiochem, La Jolla, Calif.) were run along with the samples. In order to quantify the gelatinolytic activity of MMPs, the wet gel was scanned on a GS-670 Image Densitometer (Bio-Rad), and analyzed using Multianalyst v1.1 volume quantification system software (Bio-Rad). […]

[4] = test system: MMP-2; experiment: Gelatin zymography of medium from incubated human term amniochorionic membranes, MMP-2; format: cell-based
Text: as §2, with “Ill.). […]” for “Ill.).”
SDS-Substrate gel electrophoresis (zymography): For detection of MMPs, equal volumes (15 μl) of conditioned medium (containing the activated MMPs) were mixed in a 1:3 ratio with substrate gel buffer (10% SDS, 4% sucrose, 0.25 M Tris-HCl, pH=6.8 and 0.1% bromphenol blue) and loaded directly onto gels without boiling (Raj agopalan et al., 1996 with modifications). […] In order to quantify the gelatinolytic activity of MMPs, the wet gel was scanned on a GS-670 Image Densitometer (Bio-Rad), and analyzed using Multianalyst v1.1 volume quantification system software (Bio-Rad). […]

[5] = test system: superoxide anion in fetal membranes; experiment: Nitroblue tetrazolium (formazan) assay of superoxide generation in fetal membranes; format: cell-based, human
Procedure: Intracellular superoxide anion generation: Pieces of fetal membranes were immersed in Krebs bicarbonate buffer (118 mM NaCl, 4.7 mM KCl, 1.18 MM MgSO4, 1.18 mM KH2PO4, 11.1 mM D-glucose, 0.016 mM EDTA, 2.2 mM CaCl2, 15.8 mM NaHCO3, pH=7.35−7.4) containing 1 mg/ml nitroblue tetrazolium (NBT), for 180 min. in the CO2 incubator with humidified chamber at 37° C. The soluble yellow form of NBT is reducedby O2.^− generated within the tissue to form an insoluble precipitate of blue-purple formazan. After incubation, the fetal membranes were washed in saline, photographed, placed in 4% formaldehyde and kept overnight in a refrigerator. Specimens were then embedded in OCT Tissue Tek embedding medium (Fisher Scientific, Pittsburgh, Pa.) and frozen in liquid nitrogen. The frozen specimens were cut by cryostat into 20 μm sections, mounted onto electrostatically treated-glass slides (Fisherbrand Superfrost Plus, Fisher Scientific) and counterstained with Neutral Red. They were immediately investigated by light microscopy using a Nikon Eclipse E1000M microscope connected to an MTI DC330 3CCD Color Camera (Dage MTI Inc., Michigan City, Mich.).

[6] = test system: glutathione; experiment: Total glutathione in maternal and fetal livers; format: in vivo, mice; details: 16 h
Procedure: Measurement of total glutathione: Glutathione content was measured in maternal and fetal livers of animals treated with and without NAC and sacrificed at 3, 6 and 16 hours after LPS injection. Fetal livers were pooled from all fetuses of each pregnant animal, snap frozen in liquid nitrogen and stored at −80° C. until assayed. Briefly, the frozen tissue was rapidly homogenized in 7.5% trichloroacetic acid in a ratio of 1:20 (w/v). The homogenate was centrifuged at 3000 g for 10 min at 4° C. Total glutathione content was assayed in the supernatant by a colorimetric reaction that involves the formation of a chromophoric thione (Bioxytech GSH-420, Oxis Health Products, Portland, Oreg.) and was expressed in μg/ml by using oxidized glutathione standards and further normalized by the total protein content of the pellet. The protein pellet was solubilized in 0.1 N NaOH and its protein content was estimated using a BCA protein assay kit (Pierce, Rockford, Ill.).

[7] = test system: C57B16 inbred mice; experiment: Timing of birth (latency) in LPS-injected pregnant mice; format: in vivo
Procedure: as §1, with “N-Acetylcysteine 1 g/kg (NAC: which is a membrane permeable GSH precursor, Sigma, St. Louis Mo. and direct antioxidant) was given p.o. by gavage 30 min before and 2 h after the LPS injection.” left out

[8] = parameters: species or system mice; details: mouse, in vivo
Procedure: We have experimentally investigated the transplacental passage of spin trapping compounds. Methodology: C57B16 mice were injected ip with 4 mmols/kg POBN [a-(4-pyridyl-1-oxide-N-t-butylnitrone)] on day 16 of pregnancy. Animals were sacrificed at different times after injection, 2-5 fetuses collected and lipids extracted as described by Brackett et al., 1989. Electron paramagnetic spectra were obtained in a Varian EPR spectrometer equipped with an X-band microwave bridge with center field set at 3376 Gauss and modulation frequency at 100 Hz. The extracts were examined before and after in vitro addition of a hydroxyl radical generating Fenton mixture (Fe^2++H2O2).

[9] = test system: extracellular O2−; experiment: Cytochrome c reduction assay of the X/XO reaction; format: biochemical; details: SOD 500 U/ml
Procedure: Extracellular superoxide anion generation: O2^− was generated enzymatically from the reaction between 2 mM xanthine (X) and 20 mU/ml xanthine oxidase (XO), as described by McCord and Fridovich (1969). Though these amounts are larger than those routinely used for in vitro generation of O2^− in cell-free experiments, we have based our decision on the presence of both XO and SOD in fetal membranes (Telfer et al., 1997) and on our assumption that the expression of these enzymes will change the efficiency of the X/XO reaction. As a result we monitored the efficiency of the X/XO reaction in our experimental setting by a cytochrome c assay, both in tissue-free conditions as well as in the presence of the tissue (Babior et al., 1973).

[10] = SNAP 10 mM, LNA 1 mM, data not shown
[11] = 10 mM NAC, 24 h incubation of human term fetal membranes
[12] = NAC 10 mM, human fetal membranes
[13] = addition of SOD, 3 hour incubation with NBT

lipopolysaccharide [LPS]
Increase in extracellular O2− production in placentas ([1]; LPS-injected animals at 3 hours): 2.7 fold
Fetuses dead in utero ([2]; LPS group without NAC): 63%
Vaginal stillbirth rate ([2]; LPS group without NAC): 100%

CC(=O)N[C@H](C(=O)O)C(C)(C)SN=O [SNAP, S-nitroso-N-acetyl penicillamine]
Effect on fetal membrane MMP activity (MMP-9) [3, 10]: nor the NO donor SNAP had any significant effect
Effect on fetal membrane MMP activity (MMP-2) [4, 10]: nor the NO donor SNAP had any significant effect

CC(=O)N[C@@H](CS)C(=O)O [NAC, N-acetylcysteine]
Formazan formation in the incubated tissue (macroscopic) ([5]; NAC 10 mM, 3 hour incubation with NBT): completely abolished
Formazan deposits by light microscopy (intracellular O2− formation) ([5]; tissues exposed to NAC): no formazan deposits
MMP-9 activity, % of the levels from the CRL tissue [3, 11]: 20%
Effect on MMP-9 in the presence and absence of LPS [3, 12]: dramatically inhibited
Effect on the increase in MMP-9 induced by X/XO ([3]; human fetal membranes): prevented the increase in MMP-9
Maternal liver GSH ([6]; LPS-treated pregnant mice, NAC p.o.): prevented the decrease
Fetal liver GSH content ([6]; fetuses of LPS-injected mice, maternal NAC p.o.): not different from either CRL or LPS
MMP-2 activity, % of the levels from the CRL tissue [4, 11]: 20%
Effect on MMP-2 in the presence and absence of LPS [4, 12]: dramatically inhibited
Effect on the LPS-induced increase in placental extracellular O2− production ([1]; LPS plus NAC, 3 hours): not seen
Latency compared statistically with CRL and LPS groups ([7]; LPS plus NAC): no longer different from either CRL or LPS animals
Latency period (LPS injection until delivery) ([7]; LPS plus two doses of 1 mg/kg NAC per os, 1 h before and 2 h after LPS, n=12): 35.13 ± 6.41 h
Kaplan-Maier survival analysis of cumulative birth rates ([7]; LPS-injected mice with or without NAC): did not reveal a significant NAC effect
Time of delivery after saline injection ([7]; NAC alone, no LPS, n=7): 67.71 ± 5.8 h
Fetuses dead in utero ([2]; group that received LPS plus NAC, p=0.006 vs LPS group): 37%
Proportion of pups born alive ([2]; mice given NAC before and after LPS): statistically significant increase

CC(C)(C)[N+]([O-])=Cc1cc[n+]([O-])cc1 [POBN, a-(4-pyridyl-1-oxide-N-t-butylnitrone)]
Additional difference in magnitude of the EPR signal, fetus 6 h vs maternal liver 1 h or fetus 1 h [8]: 10 fold

superoxide dismutase [SOD]
Extracellular formazan formation induced by X/XO [5, 13]: inhibited completely
Intracellular formazan formation induced by X/XO [5, 13]: only partially
Effect on the increase in MMP-9 induced by X/XO ([3]; human fetal membranes): reversed
Change in absorbance at 550 nm (cytochrome c reduction by X/XO) [9]: completely inhibited
